The values that follow come from patent EP2123249A1, “OIL SOLUTION, AND LUBRICANT, MOISTURE-RETAINING AGENT AND PREPARATION FOR EXTERNAL APPLICATION CONTAINING THE SAME” (priority 2007, dated 2008).

Structures can show the parent of a compound that is named as a salt.

Data set [1] in a line: Feeling of use, graded by viscosity. The class given is physicochemical. The note with it: class by viscosity at 25°C.
Data set [2] is described as follows: Viscosity, Brookfield viscometer DV-II+ (Spindle No. 2, 12 rpm, 25°C). The class given is physicochemical. As to the method:
The viscosity of the oil agent of the present invention is, when used in external preparations such as moisturizers and cosmetic materials, preferably 5-200 (mPa·s, 25°C), and more preferably 8-100 (mPa·s, 25°C) . When the viscosity is within the above range, good feeling of use without stickiness can be obtained upon application to skin, etc. In addition, when the oil agent is used in lubricating agents, the viscosity is preferably 50-200 (mPa·s, 25°C) , and more preferably 60-180 (mPa·s, 25°C). When the viscosity is within this range, appropriate lubricating property and workability can be obtained. In this specification, "viscosity" refers to a value of viscosity measured using a Brookfield viscometer DV-II+ (Spindle No. 2, 12 rpm, 25°C).
In these examples, viscosity was measured using a Brookfield viscometer DV-II+ (Spindle No. 2, 12 rpm, 25°C).

The nature of data set [3]: Oil solubility evaluation in KAK99 (isononyl isononanoate).
The nature of data set [4]: Water solubility evaluation. The class given is physicochemical. The note with it: in water.

Take `CCOCCOCCOC(=O)CC(C)CC(C)(C)C` (stereo not drawn) [Comparative example 1, carbitol isononanoate, reference compound]: the Feeling of use result in data set [1] is on record as “light”. In addition, the Viscosity in data set [2] was 5 mPa·s.
`CCOCCOCCOC(=O)CCC(=O)OCCOCCOCC` [Example 1, dicarbitol succinate]: the Feeling of use entry in data set [1] is reported as “light”. The molecule further registered a Viscosity in data set [2] of 12.5 mPa·s.
Take `CCOCCOCCOC(=O)CC(O)C(=O)OCCOCCOCC` (stereo not drawn) [Example 2, dicarbitol malate]: in data set [3], the Oil solubility result is “△ (Dissolved in KAK99 up to 5 % by mass)”. The Feeling of use result in data set [1] is “slightly light”. For the same molecule, in data set [4], the Water solubility entry is reported as “○ (Dissolved in water up to 10 % by mass)”. The Viscosity in data set [2] worked out at 45 mPa·s.
For the molecule `CCOCCOCCOC(=O)CCCCC(=O)OCCOCCOCC` [Example 3, dicarbitol adipate], the Feeling of use result in data set [1] is on record as “light”. Moreover, the Viscosity in data set [2] is on record as 20 mPa·s.
Taken in the same sequence, the figures for `CCOCCOCCOC(=O)C(O)C(O)C(=O)OCCOCCOCC` (stereo not drawn) [Example 4, dicarbitol tartrate] were “slightly heavy” and 207 mPa·s.
For the molecule `CCOCCOCCOCCOC(=O)CCC(=O)OCCOCCOCCOCC` [Example 5, di(triethylene glycol monoethyl ether) succinate], the Oil solubility result in data set [3] is on record as “△ (Dissolved in KAK99 up to 5 % by mass)”. Besides, in data set [1], the Feeling of use result was “slightly light”. In addition, in data set [2], the Viscosity was 32.5 mPa·s.
For the molecule `CCOCCOC(=O)CCC(=O)OCCOCC` [Example 6, di(monoethylene glycol monoethyl ether) succinate], the Feeling of use result in data set [1] is “light”. Moreover, the Water solubility entry in data set [4] is recorded as “△ (Dissolved in water up to 5 % by mass)”. In data set [2], this molecule gave a Viscosity of 10.0 mPa·s.
